Patent US20210371895A1, “BACTERIAL RESPONSE” (BioFire Diagnostics, LLC, priority 2018, published 2021)

Legend:
[1] = tested on: lasI; assay: Benchtop RT-PCR Cp of lasI transcript, strains S1/R1 with ciprofloxacin; format: cell-based, P. aeruginosa; conditions: 15 μg/mL Ciprofloxacin for 10 minutes, cDNA 1:100 dilution
Method: (§1) P. aeruginosa, two strains: one that is resistant and the other susceptible. • S1=susceptible to Ciprofloxacin • R1=resistant to Ciprofloxacin
(§2) In this example, each strain (S1 and R1) was grown to 0.5 OD600 (-1×10^8 CFU/mL) and each was treated with or without 15 μg/mL of Ciprofloxacin for 10 minutes (two strains, each +/− antibiotic, provides four test conditions). It is understood that the OD and antibiotic incubation time are illustrative only and that other concentrations and times may be used. cDNA was generated by extracting on Magnapure using TNA kit, following bacterial lysis protocol, quantifying using Qubit RNA HS Assay Kit (Q32852), genomic DNA removed and cDNA generated using Maxima H Minus cDNA Kit with dsDNAse (M1682).
For some of these genes, a similar ΔCp between susceptible and resistant strains was found both with and without the presence of antibiotics. Such genes are referred to as “generic antibiotic resistance genes” as they distinguish between susceptible and resistant strains even in the absence of antibiotics. Several of these generic antibiotic resistance genes are in the quorum sensing pathway or the iron uptake pathway, while the pathway for several others are unknown. These genes included LasI, RhlI, pqsH, pvdE, PepSY, speD, PA14_RS20905, and coA. […]

[2] = tested on: lexA; assay: Benchtop RT-PCR Cp of lexA transcript, strains S1/R1 with ciprofloxacin; format: cell-based, P. aeruginosa; conditions: 15 μg/mL Ciprofloxacin for 10 minutes, cDNA 1:100 dilution
Method: as §1, §2
For other genes, significant ΔCp was found only in the presence of antibiotics. These “specific antibiotic resistance genes” include lexA, sulA, ptrB, and, PA14_RS07985, with ptrB showing up-regulation in the resistant strain. The amplification curves for lexA are shown in FIG. 5B, where the susceptible strain with antibiotic has a Cp about 2 cycles earlier than the other three conditions. For the other three conditions, the resistant strain with and without antibiotics had essentially the same Cp as the susceptible strain without antibiotics.

[3] = tested on: lexA; assay: Pouch panel (+dsDNAse +RT) relative expression level of lexA after ciprofloxacin exposure; format: cell-based, Pseudomonas aeruginosa; conditions: 7.5 or 15 μg/mL ciprofloxacin, 10, 30 and 60 minutes, versus zero ciprofloxacin
Text: In this illustrative example, a pouch similar to pouch 510 was developed to include a DNase treatment step by including DNAse, illustratively a dsDNAse from Pandalus borealis, freeze dried into the fitment, as well as a slight modification in the elution buffer that is freeze dried into injection channel 515e, although it is understood that this dsDNAse is illustrative only and that other DNAses can be used, as well as other DNA removal methods. For the DNAse step, subsequent to elution, the temperature is raised to a temperature suitable for the DNAse enzyme, illustratively 42° C., followed by reverse-transcription and first-stage multiplex PCR. In this example, the pouch contained 45 different assays of interest (including control genes such as rpoD), targets where mRNA is present in concentrations greater than genomic (“high copy targets”) such as PA14_RS28865, as well as a number of antibiotic resistance gene targets including recA (specific) and lasI (generic) that are present in concentrations lower than genomic. However, it is understood that this panel of assays is illustrative only, and any combination of assays may be used. In one illustrative embodiment, all assays are for RNA targets, illustratively mRNA targets, although other RNA targets may be suitable for detection and/or quantification using the methods provided herein. […]

With `O=C(O)c1cn(C2CC2)c2cc(N3CCNCC3)c(F)cc2c1=O` [Ciprofloxacin] the “Cp of lasI amplification curve” value ([1]; Resistant strain +ABX) was 15.15, the “Cp of lasI amplification curve” value ([1]; Susceptible strain +ABX) was 10.55 and the “Cp of lexA amplification curve” value ([2]; Resistant strain +ABX) was 18.55. The “Cp of lexA amplification curve” value ([2]; Susceptible strain +ABX) was 16.36, the “relative expression of lexA (geometric mean normalized Cp)” value ([3]; resistant strain) was “did not change” and the “relative expression of lexA (geometric mean normalized Cp)” value ([3]; susceptible strain) was “clear time dependent induction”.
